Assay results as given in publication PMC3499949 (Journal of medicinal chemistry, 2012).

How the values were obtained:
mice [1] = assay: 55 °C warm-water tail-withdrawal assay, i.c.v. administration; type: in vivo, Male ICR mice; settings: mouse
DOR [2] = molecular target: T1, DOR (Mus musculus, UniProt P32300); assay: [35S]GTP-γ-S binding assay, agonist stimulation, DOR; settings: for DOR EC50: stimulation of [35S]GTP-γ-S binding, no stim = no stimulation at 10 µM
mice [3] = type: in vivo, Male ICR mice; settings: mouse, i.c.v.
hKOR [4] = molecular target: T2, hKOR (Homo sapiens, UniProt P41145); assay: [35S]GTP-γ-S binding assay, agonist stimulation, KOR; type: biochemical; settings: stimulation of [35S]GTP-γ-S binding; no stim = no stimulation at 10 µM
hKOR [5] = molecular target: T2, hKOR; assay: [35S]GTP-γ-S binding assay, antagonist shift design, KOR; type: biochemical
hMOR [6] = molecular target: T3, hMOR (Homo sapiens, UniProt P35372); assay: [35S]GTP-γ-S binding assay, antagonist shift design, MOR; type: biochemical
DOR [7] = molecular target: T1, DOR; assay: [35S]GTP-γ-S binding assay, antagonist shift design, DOR; type: biochemical
hMOR [8] = molecular target: T3, hMOR; assay: [35S]GTP-γ-S binding assay, agonist stimulation, MOR; type: biochemical; settings: stimulation of [35S]GTP-γ-S binding; no stim = no stimulation at 10 µM
hDOR = hDOR (Homo sapiens, UniProt P41143); assay: Radioligand displacement binding, [3H]DADLE, CHO cell membranes expressing hDOR; settings: 18a vs 17b, 18d vs 17f
Sequence of hDOR (P41143 whole entry): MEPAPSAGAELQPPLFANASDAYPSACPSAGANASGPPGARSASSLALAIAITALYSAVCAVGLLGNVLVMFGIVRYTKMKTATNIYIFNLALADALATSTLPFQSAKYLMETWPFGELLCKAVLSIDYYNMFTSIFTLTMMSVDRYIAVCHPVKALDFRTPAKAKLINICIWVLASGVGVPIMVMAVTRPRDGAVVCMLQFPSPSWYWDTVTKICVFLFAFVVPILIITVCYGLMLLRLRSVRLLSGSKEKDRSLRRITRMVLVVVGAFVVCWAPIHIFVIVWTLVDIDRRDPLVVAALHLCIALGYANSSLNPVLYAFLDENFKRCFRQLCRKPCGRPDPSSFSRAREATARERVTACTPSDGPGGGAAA

T2 sequence (P41145 whole entry): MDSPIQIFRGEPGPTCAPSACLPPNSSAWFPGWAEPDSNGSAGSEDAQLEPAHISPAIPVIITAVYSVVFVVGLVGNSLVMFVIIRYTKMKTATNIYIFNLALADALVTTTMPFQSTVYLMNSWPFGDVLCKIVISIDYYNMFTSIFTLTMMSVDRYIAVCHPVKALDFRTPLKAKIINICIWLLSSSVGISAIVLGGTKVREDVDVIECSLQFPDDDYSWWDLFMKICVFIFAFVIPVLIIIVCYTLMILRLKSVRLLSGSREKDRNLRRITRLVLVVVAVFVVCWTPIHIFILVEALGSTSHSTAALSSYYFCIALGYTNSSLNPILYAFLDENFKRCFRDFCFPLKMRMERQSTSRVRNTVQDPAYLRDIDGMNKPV
T1 sequence (P32300 whole entry): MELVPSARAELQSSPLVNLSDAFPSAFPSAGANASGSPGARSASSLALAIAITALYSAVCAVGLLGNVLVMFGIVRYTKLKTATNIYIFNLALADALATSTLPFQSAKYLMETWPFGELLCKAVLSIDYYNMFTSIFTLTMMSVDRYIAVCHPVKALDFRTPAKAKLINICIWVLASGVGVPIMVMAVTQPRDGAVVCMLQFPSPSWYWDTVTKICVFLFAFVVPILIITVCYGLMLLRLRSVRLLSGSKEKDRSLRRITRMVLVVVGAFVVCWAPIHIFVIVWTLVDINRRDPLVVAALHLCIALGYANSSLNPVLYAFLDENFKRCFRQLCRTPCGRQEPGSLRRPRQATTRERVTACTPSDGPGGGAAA
T3 sequence (P35372 whole entry): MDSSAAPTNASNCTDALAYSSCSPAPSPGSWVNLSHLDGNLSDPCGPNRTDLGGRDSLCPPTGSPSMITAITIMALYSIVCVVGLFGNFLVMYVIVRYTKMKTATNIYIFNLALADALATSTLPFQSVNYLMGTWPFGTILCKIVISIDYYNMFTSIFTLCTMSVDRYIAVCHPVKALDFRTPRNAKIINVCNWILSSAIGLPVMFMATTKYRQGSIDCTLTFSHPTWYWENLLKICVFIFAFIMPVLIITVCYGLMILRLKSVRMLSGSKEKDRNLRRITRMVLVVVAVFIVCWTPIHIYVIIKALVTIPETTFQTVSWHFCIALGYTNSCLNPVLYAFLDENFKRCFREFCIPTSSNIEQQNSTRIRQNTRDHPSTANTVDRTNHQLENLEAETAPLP

SMILES	dose for maximal antinociception (mice [1])	EC50 (DOR [2])	toxicity on repeated administration (mice [3])	KOR EC50 (hKOR [4])	Kb (hKOR [5])	DOR EC50 (DOR [2])	Kb (hMOR [6])	Kb (DOR [7])	MOR EC50 (hMOR [8])	fold weaker in binding to DOR compared to 14-benzyloxy counterpart (hDOR)	fold weaker analgesic effect than other tested ligands (mice [1]; tail-withdrawal)
CN1CC[C@]23c4c5ccc(O)c4O[C@H]2c2ncc(-c4ccc(Cl)cc4)cc2C[C@@]3(OCCCc2ccccc2)[C@H]1C5 [17h, 5′-(4-Chlorophenyl)-6,7-didehydro-4,5α-epoxy-3-hydroxy-17-methyl-14-(3-phenylpropoxy)pyrido[2′,3′:6,7]morphinan]	1 nmol	0.27 ± 0.03 nM	undue toxicity	no stim	6.9 ± 0.02 nM	–	–	–	–	–	–
Oc1ccc2c3c1O[C@H]1c4ncc(-c5ccc(Cl)cc5)cc4C=C4[C@@H](C2)N(CC2CC2)CC[C@]431 [compound 23, 5′-(4-Chlorophenyl)-17-(cyclopropylmethyl)-3-hydroxy-6,7,8,14-tetradehydro-4,5α-epoxypyrido[2′,3′:6,7]morphinan]	–	–	–	no stim	19 ± 3 nM	no stim	8 ± 0.89 nM	0.58 ± 0.1 nM	no stim	–	–
O=C(O[C@@]12Cc3cc(-c4ccc(Cl)cc4)cnc3[C@@H]3Oc4c(O)ccc5c4[C@@]31CCN(CC1CC1)[C@@H]2C5)c1ccccc1 [18a, 14-Benzoyloxy-5′-(4-chlorophenyl)-17-(cyclopropylmethyl)-6,7-didehydro-4,5α-epoxy-3-hydroxypyrido[2′,3′:6,7]morphinan]	–	–	–	no stim	126 ± 13 nM	no stim	261 ± 36 nM	218 ± 2 nM	no stim	45 fold	–
Oc1ccc2c3c1O[C@H]1c4ncc(-c5ccc(Cl)cc5)cc4C[C@@]4(OCCCc5ccccc5)[C@@H](C2)N(CC2CC2)CC[C@]314 [17d, 5′-(4-Chlorophenyl)-17-(cyclopropylmethyl)-6,7-didehydro-4,5α-epoxy-3-hydroxy-14-(3-phenylpropoxy)pyrido[2′,3′:6,7]morphinan]	1 nmol	–	–	–	–	no stim	–	0.091 ± 0.01 nM	–	–	–
CO[C@@]12Cc3cc(-c4ccc(Cl)cc4)cnc3[C@@H]3Oc4c(O)ccc5c4[C@@]31CCN(CC1CC1)[C@@H]2C5 [17a, 5′-(4-Chlorophenyl)-17-(cyclopropylmethyl)-6,7-didehydro-4,5α-epoxy-3-hydroxy-14-methoxypyrido[2′,3′:6,7]morphinan]	–	–	–	–	–	no stim ^b	–	–	no stim	–	–
O=C(Cc1ccccc1)O[C@@]12Cc3cc(-c4ccc(Cl)cc4)cnc3[C@@H]3Oc4c(O)ccc5c4[C@@]31CCN(CC1CC1)[C@@H]2C5 [18b, 5′-(4-Chlorophenyl)-17-(cyclopropylmethyl)-6,7-didehydro-4,5α-epoxy-3-hydroxy-14-(phenylacetoxy)pyrido[2′,3′:6,7]morphinan]	–	–	–	–	7 ± 2 nM	no stim	0.48 ± 0.06 nM	0.37 ± 0.04 nM	no stim	–	–
CN1CC[C@]23c4c5ccc(O)c4O[C@H]2[C@@H](O)C=C[C@H]3[C@H]1C5 [Morphine, reference compound]	10 nmol	–	–	–	–	–	–	–	–	–	–
Oc1ccc2c3c1O[C@H]1c4ncc(-c5ccc(Cl)cc5)cc4C[C@@]4(OCc5ccccc5)[C@@H](C2)N(CC2CC2)CC[C@]314 [17b, 14-(Benzyloxy)-5′-(4-chlorophenyl)-17-(cyclopropylmethyl)-6,7-didehydro-4,5α-epoxy-3-hydroxypyrido[2′,3′:6,7]morphinan]	–	–	–	–	13 ± 3 nM	no stim	11 ± 1 nM	0.64 ± 0.11 nM	no stim	–	–
CN1CC[C@]23c4c5ccc(O)c4O[C@H]2c2ncc(-c4ccc(Cl)cc4)cc2C[C@@]3(OC(=O)Cc2ccccc2)[C@H]1C5 [18e, 5′-(4-Chlorophenyl)-6,7-didehydro-4,5α-epoxy-3-hydroxy-17-methyl-14-(phenylacetoxy)pyrido[2′,3′:6,7]morphinan]	–	19 ± 6 nM	–	–	198 ± 20 nM	–	–	3.38 ± 0.34 nM	–	–	–
Oc1ccc2c3c1O[C@H]1c4ncc(-c5ccc(Cl)cc5)cc4C[C@@]4(OC/C=C/c5ccccc5)[C@@H](C2)N(CC2CC2)CC[C@]314 [17c, 5′-(4-Chlorophenyl)-14-cinnamyloxy-17-(cyclopropylmethyl)-6,7-didehydro-4,5α-epoxy-3-hydroxypyrido[2′,3′:6,7]morphinan]	–	–	–	–	–	no stim	–	–	no stim	–	–
CN1CC[C@]23c4c5ccc(O)c4O[C@H]2c2ncc(-c4ccc(Cl)cc4)cc2C[C@@]3(OC/C=C/c2ccccc2)[C@H]1C5 [17g, 5′-(4-Chlorophenyl)-14-cinnamyloxy-6,7-didehydro-4,5α-epoxy-3-hydroxy-17-methylpyrido[2′,3′:6,7]morphinan]	1 nmol	0.59 ± 0.05 nM	undue toxicity	–	–	–	–	–	–	–	–
O=C(CCc1ccccc1)O[C@@]12Cc3cc(-c4ccc(Cl)cc4)cnc3[C@@H]3Oc4c(O)ccc5c4[C@@]31CCN(CC1CC1)[C@@H]2C5 [18c, 5′-(4-Chlorophenyl)-17-(cyclopropylmethyl)-6,7-didehydro-4,5α-epoxy-3-hydroxy-14-(3-phenylpropionyloxy)pyrido[2′,3′:6,7]morphinan]	–	–	–	–	14 ± 2 nM	no stim	13 ± 1.7 nM	1.86 ± 0.21 nM	no stim	–	–
CN1CC[C@]23c4c5ccc(O)c4O[C@H]2c2ncc(-c4ccc(Cl)cc4)cc2C[C@@]3(OC(=O)c2ccccc2)[C@H]1C5 [18d, 14-Benzoyloxy-5′-(4-chlorophenyl)-6,7-didehydro-4,5α-epoxy-3-hydroxy-17-methylpyrido[2′,3′:6,7]morphinan]	–	–	–	no stim	426 ± 47 nM	no stim	1270 ± 166 nM	45 ± 6 nM	–	10 fold	–
CO[C@@]12Cc3cc(-c4ccc(Cl)cc4)cnc3[C@@H]3Oc4c(O)ccc5c4[C@@]31CCN(C)[C@@H]2C5 [17e, 5′-(4-Chlorophenyl)-6,7-didehydro-4,5α-epoxy-3-hydroxy-14-methoxy-17-methylpyrido[2′,3′:6,7]morphinan]	10 nmol	–	–	–	17 ± 0.13 nM	no stim	–	1.6 ± 0.35 nM	–	–	6 fold
CN1CC[C@]23c4c5ccc(O)c4O[C@H]2c2ncc(-c4ccc(Cl)cc4)cc2C[C@@]3(OC(=O)CCc2ccccc2)[C@H]1C5 [18f, 5′-(4-Chlorophenyl)-6,7-didehydro-4,5α-epoxy-3-hydroxy-17-methyl-14-(3-phenylpropionyloxy)pyrido[2′,3′:6,7]morphinan]	–	5.52 ± 0.53 nM	–	–	18 ± 0.2 nM	–	–	1.64 ± 0.3 nM	–	–	–
CN1CC[C@]23c4c5ccc(O)c4O[C@H]2c2ncc(-c4ccc(Cl)cc4)cc2C[C@@]3(OCc2ccccc2)[C@H]1C5 [17f, 14-Benzyloxy-5′-(4-chlorophenyl)-6,7-didehydro-4,5α-epoxy-3-hydroxy-17-methylpyrido[2′,3′:6,7]morphinan]	–	11 ± 1 nM	–	–	83 ± 14 nM	–	–	4.54 ± 0.81 nM	–	–	–
